Legend:
[1] = AUCinfinity in CD1 mouse spleen assessed as baloxavir acid level at 15 mg/kg, po administered as single dose measured up to 24 hrs by LC-MS/MS analysis; assay type: ADME, organism-based; design: dose 15 mg/kg, route oral, time infinity; conditions: in vivo
[2] = Ratio of AUClast in CD1 mouse blood to plasma assessed as baloxavir acid level at 15 mg/kg, po administered as single dose measured up to 24 hrs by LC-MS/MS analysis; assay type: ADME, organism-based; conditions: in vivo
[3] = AUCinfinity in CD1 mouse lung assessed as baloxavir acid level at 15 mg/kg, po administered as single dose measured up to 24 hrs by LC-MS/MS analysis; assay type: ADME, organism-based; design: dose 15 mg/kg, route oral, time infinity; conditions: in vivo
[4] = Elimination rate constant in CD1 mouse plasma assessed as baloxavir acid level at 15 mg/kg, po administered as single dose measured up to 24 hrs by LC-MS/MS analysis; assay type: ADME, organism-based; conditions: in vivo
[5] = AUCinfinity in CD1 mouse kidney assessed as baloxavir acid level at 15 mg/kg, po administered as single dose measured up to 24 hrs by LC-MS/MS analysis; assay type: ADME, organism-based; design: dose 15 mg/kg, time infinity, route oral; conditions: in vivo
[6] = Elimination rate constant in CD1 mouse liver assessed as baloxavir acid level at 15 mg/kg, po administered as single dose measured up to 24 hrs by LC-MS/MS analysis; assay type: ADME, organism-based; conditions: in vivo
[7] = Elimination rate constant in CD1 mouse small intestine assessed as baloxavir acid level at 15 mg/kg, po administered as single dose measured up to 24 hrs by LC-MS/MS analysis; assay type: ADME, organism-based; conditions: in vivo
[8] = MRTlast in CD1 mouse blood assessed as baloxavir acid level at 15 mg/kg, po administered as single dose measured up to 24 hrs by LC-MS/MS analysis; assay type: ADME, organism-based; conditions: in vivo
[9] = Half life in CD1 mouse small intestine assessed as baloxavir acid level at 15 mg/kg, po administered as single dose measured up to 24 hrs by LC-MS/MS analysis; assay type: ADME, organism-based; conditions: in vivo
[10] = Cmax in CD1 mouse liver assessed as baloxavir acid level at 15 mg/kg, po administered as single dose measured up to 24 hrs by LC-MS/MS analysis; assay type: ADME, organism-based; design: dose 15 mg/kg, route oral; conditions: in vivo
[11] = AUClast in CD1 mouse trachea assessed as (12aR)-12-(Diphenylmethyl)-7-hydroxy-3,4,12,12a-tetrahydro-1H-[1,4]oxazino[3,4-c]pyrido[2,1-f ][1,2,4]triazine-6,8-dione level at 15 mg/kg, po administered as single dose measured up to 24 hrs by LC-MS/MS analysis; assay type: ADME, organism-based; conditions: in vivo
[12] = AUClast in CD1 mouse blood assessed as (12aR)-12-(Diphenylmethyl)-7-hydroxy-3,4,12,12a-tetrahydro-1H-[1,4]oxazino[3,4-c]pyrido[2,1-f ][1,2,4]triazine-6,8-dione level at 15 mg/kg, po administered as single dose measured up to 24 hrs by LC-MS/MS analysis; assay type: ADME, organism-based; conditions: in vivo
[13] = Half life in CD1 mouse muscle assessed as (12aR)-12-(Diphenylmethyl)-7-hydroxy-3,4,12,12a-tetrahydro-1H-[1,4]oxazino[3,4-c]pyrido[2,1-f ][1,2,4]triazine-6,8-dione level at 15 mg/kg, po administered as single dose measured up to 24 hrs by LC-MS/MS analysis; assay type: ADME, organism-based, Muscle tissue; conditions: in vivo
[14] = Tmax in CD1 mouse liver assessed as (12aR)-12-(Diphenylmethyl)-7-hydroxy-3,4,12,12a-tetrahydro-1H-[1,4]oxazino[3,4-c]pyrido[2,1-f ][1,2,4]triazine-6,8-dione level at 15 mg/kg, po administered as single dose measured up to 24 hrs by LC-MS/MS analysis; assay type: ADME, organism-based; conditions: in vivo
[15] = Half life in CD1 mouse small intestine assessed as (12aR)-12-(Diphenylmethyl)-7-hydroxy-3,4,12,12a-tetrahydro-1H-[1,4]oxazino[3,4-c]pyrido[2,1-f ][1,2,4]triazine-6,8-dione level at 15 mg/kg, po administered as single dose measured up to 24 hrs by LC-MS/MS analysis; assay type: ADME, organism-based; conditions: in vivo
[16] = Ratio of AUClast in CD1 mouse muscle to plasma assessed as (12aR)-12-(Diphenylmethyl)-7-hydroxy-3,4,12,12a-tetrahydro-1H-[1,4]oxazino[3,4-c]pyrido[2,1-f ][1,2,4]triazine-6,8-dione level at 15 mg/kg, po administered as single dose measured up to 24 hrs by LC-MS/MS analysis; assay type: ADME, organism-based; conditions: other tissue
[17] = AUCinfinity in CD1 mouse lung assessed as (12aR)-12-(Diphenylmethyl)-7-hydroxy-3,4,12,12a-tetrahydro-1H-[1,4]oxazino[3,4-c]pyrido[2,1-f ][1,2,4]triazine-6,8-dione level at 15 mg/kg, po administered as single dose measured up to 24 hrs by LC-MS/MS analysis; assay type: ADME, organism-based; design: dose 15 mg/kg, route oral, time infinity; conditions: in vivo
[18] = Elimination rate constant in CD1 mouse liver assessed as (12aR)-12-(Diphenylmethyl)-7-hydroxy-3,4,12,12a-tetrahydro-1H-[1,4]oxazino[3,4-c]pyrido[2,1-f ][1,2,4]triazine-6,8-dione level at 15 mg/kg, po administered as single dose measured up to 24 hrs by LC-MS/MS analysis; assay type: ADME, organism-based; conditions: in vivo
[19] = Elimination rate constant in CD1 mouse blood assessed as (12aR)-12-(Diphenylmethyl)-7-hydroxy-3,4,12,12a-tetrahydro-1H-[1,4]oxazino[3,4-c]pyrido[2,1-f ][1,2,4]triazine-6,8-dione level at 15 mg/kg, po administered as single dose measured up to 24 hrs by LC-MS/MS analysis; assay type: ADME, organism-based; conditions: in vivo
[20] = MRTlast in CD1 mouse spleen assessed as (12aR)-12-(Diphenylmethyl)-7-hydroxy-3,4,12,12a-tetrahydro-1H-[1,4]oxazino[3,4-c]pyrido[2,1-f ][1,2,4]triazine-6,8-dione level at 15 mg/kg, po administered as single dose measured up to 24 hrs by LC-MS/MS analysis; assay type: ADME, organism-based; conditions: in vivo
[21] = Stability in human plasma assessed as parent compound remaining at 1 uM measured after 4 hrs by LC-MS/MS analysis; assay type: ADME, cell-free; conditions: read-out: Stability
[22] = MRTlast in CD1 mouse muscle assessed as (12aR)-12-(Diphenylmethyl)-7-hydroxy-3,4,12,12a-tetrahydro-1H-[1,4]oxazino[3,4-c]pyrido[2,1-f ][1,2,4]triazine-6,8-dione level at 15 mg/kg, po administered as single dose measured up to 24 hrs by LC-MS/MS analysis; assay type: ADME, organism-based, Muscle tissue; conditions: in vivo
[23] = AUClast in CD1 mouse heart assessed as (12aR)-12-(Diphenylmethyl)-7-hydroxy-3,4,12,12a-tetrahydro-1H-[1,4]oxazino[3,4-c]pyrido[2,1-f ][1,2,4]triazine-6,8-dione level at 15 mg/kg, po administered as single dose measured up to 24 hrs by LC-MS/MS analysis; assay type: ADME, organism-based; conditions: in vivo
[24] = AUClast in CD1 mouse liver assessed as (12aR)-12-(Diphenylmethyl)-7-hydroxy-3,4,12,12a-tetrahydro-1H-[1,4]oxazino[3,4-c]pyrido[2,1-f ][1,2,4]triazine-6,8-dione level at 15 mg/kg, po administered as single dose measured up to 24 hrs by LC-MS/MS analysis; assay type: ADME, organism-based; conditions: in vivo
[25] = Tmax in CD1 mouse plasma assessed as (12aR)-12-(Diphenylmethyl)-7-hydroxy-3,4,12,12a-tetrahydro-1H-[1,4]oxazino[3,4-c]pyrido[2,1-f ][1,2,4]triazine-6,8-dione level at 15 mg/kg, po administered as single dose measured up to 24 hrs by LC-MS/MS analysis; assay type: ADME, organism-based; conditions: in vivo

COC(=O)OCOc1c2n(ccc1=O)N([C@@H]1c3ccccc3SCc3c1ccc(F)c3F)[C@@H]1COCCN1C2=O [BALOXAVIR MARBOXIL]
AUC [1]: 3640 ng·h/g | Ratio AUC [2]: 3.05 | AUC [3]: 9025 ng·h/g | Kel [4]: 0.18 h⁻¹ | AUC [5]: 21287 ng·h/g | Kel [6]: 0.27 h⁻¹ | Kel [7]: 0.22 h⁻¹ | MRTlast [8]: 3.93 h | t1/2 [9]: 3.13 h | Cmax [10]: 15342 ng/g

COC(=O)OCOc1c2n(ccc1=O)N(C(c1ccccc1)c1ccccc1)[C@@H]1COCCN1C2=O
AUClast [11]: 10575 ng·h/g | AUClast [12]: 2746 ng·h/g | t1/2 [13]: 1.71 h | Tmax [14]: 0.5 h | t1/2 [15]: 1.28 h | Ratio AUC [16]: 2.26 | AUC [17]: 8547 ng·h/g | Kel [18]: 0.3 h⁻¹ | Kel [19]: 0.4 h⁻¹ | MRTlast [20]: 1.89 h | remaining at 4 h, 1 µM [21]: 8.1% | MRTlast [22]: 1.86 h | AUClast [23]: 11111 ng·h/g | AUClast [24]: 34818 ng·h/g | Tmax [25]: 0.5 h

From ChEMBL document CHEMBL4622979, “Non-rigid Diarylmethyl Analogs of Baloxavir as Cap-Dependent Endonuclease Inhibitors of Influenza Viruses” (J Med Chem, 2020)
